Laboratory results reported in US20090035844A1, “Mechanical cell wounder device and related method” (HONG KONG BAPTIST UNIVERSITY, priority 2007, published 2009).

System: IEC-6 cells
Test: Wounding assay: migration of IEC-6 cells after mechanical wounding (96-well plate)
Assay type: cell-based, rat
Description: After incubation in 10% FBS supplemented DMEM for 24 hours, the cells are starved in serum-free medium for another 24 hours. […] A cell denuded area is created by scratching the cell monolayer with the eight-channel mechanical wounder fitted with p-10 pipette tips (Axygen, T-300). To ensure even contact between the tips and the bottom of the well, the pins are calibrated by adjusting the hex screw with a hex wrench. With the help of the guiding-bar, the wounder is fixed onto the 96-well plate where each channel (pipette tip) is positioned at the same level in the eight wells of the same column. During wounding, the cell monolayer is scratched by moving the wounder from the left inner edge to the right inner edge of the wells where a sharp wound is formed along the diameter of each well. The wounding procedure is then repeated for all columns of a 96-well plate.
Photomicrographs of wounds are taken at time zero (501, 503, 505), 16 hours (511, 513, 515) and 24 hours (521, 523, 525) after wounding. Images at time zero are taken to record the initial width of the wounds and the recovery of the wounded monolayers due to cell migration towards the denuded area can be evaluated at 16 and 24 hours. The images are captured using an inverted phase-contract microscope such as a TMS Nikon with 4× objective, and the width of wound can quantified by the software such as Motic image plus 2.0 software of Motic Instruments. The migration of cells towards the wounds is expressed as a percentage of wound closure where % of wound closure=[(Wt=0−Wt=16 or 24)/Wt=0]×100% where Wt=0 is the width of wound measured immediately after scratching and Wt=16 or 24 is the width of wound measured 16 hours or 24 hours after scratching.

Molecule | percentage of wound closure (16 hours after wounding, 5 mM DFMO in serum-free medium (control about 60%)) | percentage of wound closure (24 hours after wounding, 5 mM DFMO in serum-free medium (control 76%)) | percentage of wound closure (24 hours after wounding, 20 ng/ml EGF in serum-free medium (control 76%))
NCCC[C@](N)(C(=O)O)C(F)F [DFMO, alpha-difluoromethylornithine] | 33% | around 50% | –
epithelial growth factor (NSDSECPLSHDGYCLHDGVCMYIEALDKYACNCVVGYIGERCQYRDLKWWELR; Epidermal growth factor; UniProt P01133 971-1023, looked up) [EGF, cell migration enhancer, used as the inducer of cell migration] | – | – | ~100%
